The target of one assay is Smurf-1 (Homo sapiens, UniProt Q9HCE7). The assay can be described thus: biochemical. It counts as biochemical. From the text: (§1) To determine the HECT E3 ligase selectivity of the compounds, a panel of biochemical HECT E3 ligase autoubiquitinylation assays was employed (Smurf-1, Smurf-2, WWP1, WWP2, ITCH, Nedd4, Nedd4L and E6AP). The conjugation of ubiquitin to a protein substrate is a multistep process. In an initial ATP-requiring step, a thioester bond is formed between the carboxyl terminus of ubiquitin and an internal cystein residue of the ubiquitin-activating enzyme (E1). Activated ubiquitin is then transferred to a specific cystein residue of an ubiquitin-conjugating enzyme (E2). E2s donate ubiquitin to a HECT E3 ligase (E3) from which it is transferred to the substrate protein. HECT E3 ligases can auto-ubiquitinylate. This event is detected in the TR-FRET (Time-Resolved Fluorescence Resonance Energy Transfer) assay used in this panel. The reaction mix contains E1, E2, tagged-E3, biotin-conjugated ubiquitin, the compound and ATP in a suitable buffer and is incubated for 45 minutes to allow auto-ubiquitinylation of the E3 ligase. To measure the extent of ubiquitinylated E3 ligase by TR-FRET, the donor fluorophore Europium cryptate (Eu3+ cryptate), conjugated to streptavidin which subsequently binds to biotinylated ubiquitin, and the modified allophycocyanin XL665 (HTRF® primary acceptor fluorophore) coupled to a tag-specific antibody (HA, His or GST), which recognizes the respective E3 ligase fusion proteins, are added after the reaction is complete. When these two fluorophores are brought together by a biomolecular interaction (in this case ubiquitinylation of the E3 ligase), a portion of the energy captured by the Cryptate during excitation is released through fluorescence emission at 620 nm, while the remaining energy is transferred to XL665. This energy is then released by XL665 as specific fluorescence at 665 nm. Light at 665 nm is emitted only through FRET with Europium.
(§2) Test and reference compounds are prepared at 180×[final] in 90% DMSO, and diluted 1:3 in 90% DMSO.
(§3) For the biochemical assay panel, 50 nl of the test compounds, reference compounds and buffer/DMSO control are transferred to the respective wells of a 384-well white GREINER “SMALL VOLUME” PS plate. The assay panel is run at room temperature on a Biomek FX liquid handling workstation. To the assay plates containing 50 nl compound or control solutions in 90% DMSO, 4.5 ul of E3 ligase solution were added per well, followed by 4.5 ul of the pre-incubated E1/E2/Ub mix or the pre-diluted ubiquitin (LOW control). Plates are shaken vigorously after each addition. In this assay the compound concentrations range from 3 nM to 10 uM in an 8-point dose-response curve.
(§4) After an incubation time of 45 min in the dark, the plates are transferred into the Pherastar fluorescence reader to measure the TR-FRET signal.

A further assay concerns the target Smurf-2 (Homo sapiens, UniProt Q9HAU4). The assay can be described thus: HECT E3 ligase autoubiquitinylation TR-FRET assay, Smurf-2. It counts as biochemical.
Source text: as §1, §2, §3, §4

Setting [1] is: biochemical autoubiquitinylation TR-FRET, 45 min incubation, 8-point dose-response 3 nM to 10 uM.
The mark [2] stands for this setting: biochemical autoubiquitinylation TR-FRET, 45 min incubation, 8-point dose-response 3 nM to 10 uM, read-out: Smurf-2/IC50.

The structures appear in SMILES notation. Where two headings read alike, the source gives them in different places.

Smurf-2, sequence (Q9HAU4 whole entry, species assumed): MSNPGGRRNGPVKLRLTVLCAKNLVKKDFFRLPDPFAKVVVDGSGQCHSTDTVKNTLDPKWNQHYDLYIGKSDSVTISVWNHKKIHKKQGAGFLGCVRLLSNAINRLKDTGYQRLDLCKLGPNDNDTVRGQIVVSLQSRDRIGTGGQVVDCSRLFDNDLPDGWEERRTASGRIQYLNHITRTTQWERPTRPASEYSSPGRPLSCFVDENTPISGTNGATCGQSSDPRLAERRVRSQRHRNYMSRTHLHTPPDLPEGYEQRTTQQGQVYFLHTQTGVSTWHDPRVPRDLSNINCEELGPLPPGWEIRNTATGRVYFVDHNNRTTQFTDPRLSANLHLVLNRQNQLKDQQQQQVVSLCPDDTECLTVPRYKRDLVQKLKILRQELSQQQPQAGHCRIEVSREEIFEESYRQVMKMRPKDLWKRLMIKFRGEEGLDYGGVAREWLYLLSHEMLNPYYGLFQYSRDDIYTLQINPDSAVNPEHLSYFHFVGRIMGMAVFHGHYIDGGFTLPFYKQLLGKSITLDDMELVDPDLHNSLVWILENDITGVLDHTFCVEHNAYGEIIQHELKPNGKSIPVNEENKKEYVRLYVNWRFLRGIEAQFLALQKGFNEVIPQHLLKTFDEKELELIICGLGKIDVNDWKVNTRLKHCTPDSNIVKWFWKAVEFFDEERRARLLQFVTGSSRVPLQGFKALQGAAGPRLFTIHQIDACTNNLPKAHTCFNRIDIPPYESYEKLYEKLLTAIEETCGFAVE
Smurf-1, sequence (Q9HCE7 whole entry): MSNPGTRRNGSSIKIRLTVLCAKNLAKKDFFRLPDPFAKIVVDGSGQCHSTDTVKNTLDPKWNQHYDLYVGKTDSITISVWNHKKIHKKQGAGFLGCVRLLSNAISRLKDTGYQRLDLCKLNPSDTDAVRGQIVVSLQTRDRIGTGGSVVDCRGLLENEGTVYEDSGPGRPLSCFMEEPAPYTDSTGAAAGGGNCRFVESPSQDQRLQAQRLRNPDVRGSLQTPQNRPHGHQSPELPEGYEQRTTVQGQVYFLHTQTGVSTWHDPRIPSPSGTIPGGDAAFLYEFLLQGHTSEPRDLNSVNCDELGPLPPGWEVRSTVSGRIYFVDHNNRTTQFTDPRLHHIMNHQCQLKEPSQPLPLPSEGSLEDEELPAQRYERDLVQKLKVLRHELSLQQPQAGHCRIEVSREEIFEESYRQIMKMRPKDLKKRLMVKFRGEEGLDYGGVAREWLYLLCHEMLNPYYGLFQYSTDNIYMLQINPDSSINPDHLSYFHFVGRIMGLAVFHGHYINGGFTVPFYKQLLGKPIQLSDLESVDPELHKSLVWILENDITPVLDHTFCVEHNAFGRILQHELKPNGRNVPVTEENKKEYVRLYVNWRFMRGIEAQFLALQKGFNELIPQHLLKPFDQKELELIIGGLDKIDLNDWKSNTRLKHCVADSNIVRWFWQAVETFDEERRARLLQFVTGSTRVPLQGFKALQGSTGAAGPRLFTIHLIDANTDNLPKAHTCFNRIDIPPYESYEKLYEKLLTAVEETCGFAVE

For the compound `Cc1c(NC(=O)c2noc3c2CCCc2cc(OC(F)(F)F)ccc2-3)c(=O)n(-c2ccccc2)n1C` [Example 39, N-(1,5-dimethyl-3-oxo-2-phenyl-2,3-dihydro-1H-pyrazol-4-yl)-8-(trifluoromethoxy)-5,6-dihydro-4H-benzo[3,4]cyclohepta[1,2-d]isoxazole-3-carboxamide], the IC50 at Smurf-1 (setting [1]) is 200 nM; on Smurf-2 (setting [2]), 5550 nM.

Consider `Cc1c(NC(=O)c2noc3c2CCCc2cc(OC(F)(F)F)ccc2-3)c(=O)n(-c2c(Cl)cccc2Cl)n1C` [Example 41, N-(2-(2,6-dichlorophenyl)-1,5-dimethyl-3-oxo-2,3-dihydro-1H-pyrazol-4-yl)-8-(trifluoromethoxy)-5,6-dihydro-4H-benzo[3,4]cyclohepta[1,2-d]isoxazole-3-carboxamide], for which the results for the IC50 against Smurf-1 (setting [1]) and on Smurf-2 (setting [2]) were 4.5 nM and 390 nM, respectively.

Take `Cc1c(NC(=O)c2noc3c2CCCc2cc(OC(F)(F)F)ccc2-3)c(=O)n(C2CCCCC2)n1C` [Example 45, N-(2-cyclohexyl-1,5-dimethyl-3-oxo-2,3-dihydro-1H-pyrazol-4-yl)-8-(trifluoromethoxy)-5,6-dihydro-4H-benzo[3,4]cyclohepta[1,2-d]isoxazole-3-carboxamide]: the IC50 was 2.2 nM against Smurf-1 (setting [1]) and 175 nM at Smurf-2 (setting [2]).

On to `Cc1c(NC(=O)c2noc3c2CCSc2cc(OC(F)(F)F)ccc2-3)c(=O)n(-c2ccccc2F)n1C` [Example 46, N-(2-(2-fluorophenyl)-1,5-dimethyl-3-oxo-2,3-dihydro-1H-pyrazol-4-yl)-8-(trifluoromethoxy)-4,5-dihydrobenzo[6,7]thiepino[4,5-d]isoxazole-3-carboxamide], for which the figures for the IC50 against Smurf-1 (setting [1]) and against Smurf-2 were 31.5 nM and above 10000 nM, respectively.

In the case of `Cc1c(NC(=O)c2noc3c2CCSc2ccccc2-3)c(=O)n(-c2ccccc2)n1C` [Example 47, N-(1,5-dimethyl-3-oxo-2-phenyl-2,3-dihydro-1H-pyrazol-4-yl)-4,5-dihydrobenzo[6,7]thiepino[4,5-d]isoxazole-3-carboxamide], the IC50 against Smurf-1 (setting [1]) is 1130 nM; against Smurf-2, above 10000 nM.

With `Cc1c(NC(=O)c2noc3c2CC2C(c4ccccc4-3)C2(Cl)Cl)c(=O)n(-c2ccccc2)n1C` (centres unmarked) [Example 50, 9,9-dichloro-N-(1,5-dimethyl-3-oxo-2-phenyl-2,3-dihydro-1H-pyrazol-4-yl)-8,8a,9,9a-tetrahydrobenzo[3,4]cyclopropa[5,6]cyclohepta[1,2-d]isoxazole-7-carboxamide], the IC50 against Smurf-1 (setting [1]) was 462 nM; against Smurf-2 it was above 10000 nM.

Turning to `Cc1c(NC(=O)c2noc3c2CCCCc2ccccc2-3)c(=O)n(-c2ccccc2)n1C` [Example 51, N-(1,5-dimethyl-3-oxo-2-phenyl-2,3-dihydro-1H-pyrazol-4-yl)-4,5,6,7-tetrahydrobenzo[3,4]cycloocta[1,2-d]isoxazole-3-carboxamide], the figures for the IC50 on Smurf-1 (setting [1]) and at Smurf-2 were 658 nM and above 10000 nM, respectively.

With `COc1ccc2c(c1)CCCCc1c(C(=O)Nc3c(C)n(C)n(-c4ccccc4F)c3=O)noc1-2` [Example 53, N-(2-(2-fluorophenyl)-1,5-dimethyl-3-oxo-2,3-dihydro-1H-pyrazol-4-yl)-9-methoxy-4,5,6,7-tetrahydrobenzo[3,4]cycloocta[1,2-d]isoxazole-3-carboxamide], the IC50 against Smurf-1 (setting [1]) is 132 nM; at Smurf-2, above 10000 nM.

As for `COc1ccc2c(c1)OCCCc1c(C(=O)Nc3c(C)n(C)n(C4CCCCC4)c3=O)noc1-2` [Example 54, N-(2-cyclohexyl-1,5-dimethyl-3-oxo-2,3-dihydro-1H-pyrazol-4-yl)-9-methoxy-5,6-dihydro-4H-benzo[2,3]oxocino[5,4-d]isoxazole-3-carboxamide], the IC50 was 192 nM on Smurf-1 and above 10000 nM on Smurf-2.

As to `COc1ccc(Cn2c(=O)c(NC(=O)c3noc4c3CCCc3cc(OC)ccc3-4)c(C)n2C)cc1` [Example 55, 8-methoxy-N-(2-(4-methoxybenzyl)-1,5-dimethyl-3-oxo-2,3-dihydro-1H-pyrazol-4-yl)-5,6-dihydro-4H-benzo[3,4]cyclohepta[1,2-d]isoxazole-3-carboxamide], the IC50 at Smurf-1 (setting [1]) was 9900 nM; at Smurf-2, above 10000 nM.

(Values after US20170088546A1 (priority 2014, published 2017).)
